The source of these data is patent US9062037B2, “Tazarotene derivatives” (Stiefel Laboratories, Inc., priority 2009, dated 2015).

One data set deals with SkinEthic RHE cultures. As to the kind of experiment: IL-1α and IL-8 activity assay in SkinEthic RHE cultures. Conditions: 6 μl test article, 72 hours. It counts as cell-based, human. The procedure:
SkinEthic RHE cultures were transferred into 6-well plates containing 1.0 mL/well growth media. The cultures were equilibrated at 37° C. and the media was changed daily. The cultures were subsequently placed in 60 mm petri dishes containing 3.5 mL growth media. 6 μl aliquots of the Test Articles shown in Table 3 were applied to duplicate cultures. The cultures were incubated at 37° C. for 72 hours. At the end of the incubation period, the growth media was collected and stored at −20° C. The tissues were cut in half and one half was placed in 10% NBF for histology, while the other half was placed in RNAlater™ solution (Ambion). The following analyses were performed: a) IL-1α and IL-8 activity assay; b) Hand E staining; c) Immunohistochemistry for K10, K19 and filaggrin; and d) qRT-PCR to quantitate K10, K19 and filaggrin expression.

Data set [1] deals with Reconstructed human epidermis (RHE) tissues. As to the kind of experiment: RT-qPCR gene expression of K10, K19, filaggrin, K4 and K13 in reconstructed human epidermis (RHE) cultures. It counts as cell-based. Conditions: 72 h, 2.83 mM in OD/10% DMSO, 6 μl. The procedure:
Reconstructed human epidermis (RHE) tissues were cultured in-house as previously described by Poumay et al. Briefly, polycarbonate culture inserts (12 mm diameter and 0.4 μm pore size, Millipore) were filled with 150 μL of a suspension containing approximately 5×10^5 primary adult human keratinocytes. The inserts received another 500 μL of keratinocyte culture media and were placed in a 6-well plate (1 insert/well) containing 2.5 mL of RHE Growth Media (Epilife media +1.5 mM CaCl2). RHE cultures were incubated at 37° C. in a humidified atmosphere containing 5% CO2, for 24 hours. Subsequently (on Day 0), RHE cultures were exposed to the air-liquid interface by removing the RHE Growth Media from the top of the cultures, and replacing with 1.5 mL/well of RHE Growth Media containing 50 μg/mL vitamin C. Media was changed every other day until the cultures were dosed with Test Articles. A stock solution of 0.1% tazarotene (2.83 mM at 99.5% purity) in OD/10% DMSO was prepared. For tazarotene benzoate, hydroxytazarotenic acid, keto tazarotenic acid, keto tazarotene, and tazarotene nicotinate, a 10 mg/mL stock solution (in DMSO) was already prepared. From this stock solution, a 2.83 mM working solution (in octyldodecanol) was prepared. All other tested compounds were resuspended in DMSO and OD to obtain a final concentration of 2.83 mM in OD/10% DMSO. On Day 12, the cultures were placed in 60 mm petri dishes containing 3 mL of RHE Growth Media (+VitC). Test articles (6 μl) were applied to triplicate cultures and cultures were incubated at 37° C. for 72 hours. Untreated and OD alone served as negative controls. At the end of the incubation period, the growth media was collected and stored at −20° C. The tissues were cut in half: one half was placed in 10% NBF for histology, and the other half was placed in RNAlater™ solution for RT-qPCR. RNA was isolated and concentrations were determined using a NanoDrop spectrophotometer. In addition to using the same amount of RNA for each sample, data was normalized to internal GAPDH mRNA levels and is expressed as relative quantification (RQ) to untreated controls. RNA extracts from each replicate were amplified using RT-qPCR. The relative gene expression of five biomarkers was determined: Keratin 10, Keratin 19, Filaggrin, Keratin 4, and Keratin 13.
A general note: Real-time PCR tracks product formation cycle by cycle.

A short description of data set [2]: Stability in human plasma at room temperature. It counts as in vitro ADME. The procedure:
Tazarotene, tazarotene sulfoxide and tazarotene benzoate were incubated at room temperature with human and rat plasma. The incubation was carried out in duplicate and samples were taken at specific time points for stability analyses (i) rat samples (0 hour, 2 hours and 4 hours) and (ii) human samples (0 hour, 2 hours, 4 hours and 8 hours). Samples were analyzed by LC-MS/MS.

The nature of data set [3]: HPLC analysis of mixtures of DUAC gel and TAZORAC cream (degradation of tazarotene in the presence of benzoyl peroxide). It counts as physicochemical. As to conditions: fresh samples. Here is the method:
DUAC® gel (1% clindamycin and 5% benzoyl peroxide marketed by Stiefel Laboratories, Inc.) and TAZORAC® cream (0.1% tazarotene marketed by Allergan, Inc.) have been successfully used to treat facial acne. However, these topical treatments are not approved for concomitant use. To study whether tazarotene is susceptible to oxidative decomposition by benzoyl peroxide, an in vitro laboratory study was conducted wherein a mixture of DUAC gel and TAZORAC cream was prepared.
Samples were prepared by taking equal portions of DUAC gel and TAZORAC cream and mixing them thoroughly at room temperature with a spatula in a suitable container to form a uniform mixture. The initial samples were analyzed immediately by HPLC. The other samples were placed into an oven at 35° C. and removed for analysis after one, two, four, six and eight hours. An allowance was made for product evaporation over the course of the study.

Another data set in a line: in vitro. As to conditions: human, liver microsomes, pH 7.4, Half-life, HLM. In general terms: Microsomes from liver hold many membrane-bound enzymes, among them those of drug oxidation.
The nature of data set [4]: In vitro application of DUAC gel/TAZORAC cream mixture to split-thickness human skin; tazarotene and degradants quantified by LC/MS/MS. Conditions: for detected in the receiving medium (passing through the skin): DUAC/TAZORAC mixture applied to split-thickness human skin. It counts as in vitro ADME. The procedure:
An in vitro study was conducted to assess the formation of tazarotene degradants following the application of a mixture of DUAC gel and TAZORAC cream to human skin.
Equal portions of DUAC gel and TAZORAC cream were dispensed into a glass vial and mixed for approximately three minutes with a metal spatula to ensure a homogenous mixture. Samples of European DUAC gel and US DUAC gel were used in separate experiments. […] The test mixtures were then applied to the surface of split-thickness skin (˜0.25 mm) at a dose of 15.6 mg/cm^2 and spread evenly using a positive displacement pipette.
After 2 and 6 hours, the skin samples were washed, tape stripped twice, and then the epidermis was peeled from the dermis using a heat block. The skin samples were then extracted with acetonitrile overnight at 4° C. The distribution of tazarotene and its degradants within the epidermis, dermis and surface wash were quantified by LC/MS/MS with a 50 pg/mL LOQ. The experiments were performed under yellow light conditions. For the purposes of comparison, mixtures of DUAC gel and TAZORAC cream were also prepared and retained for stability testing at 0, 2 and 6 hour time points.

[5] abbreviates: read-out: K4 Fold Change vs Untreated/OD controls (upregulation).
Where [6] appears, read: read-out: K13 Fold Change vs Untreated/OD controls (upregulation).
The mark [7] stands for this setting: read-out: K19 Fold Change vs Untreated/OD controls (upregulation).

Read-outs that look alike come from different tables or passages of the source.

Consider `CCOC(=O)c1ccc(C#Cc2ccc3c(c2)C(C)(C)CCS3)nc1` [Tazarotene, ethyl 6-[2-(4,4-dimethylthiochroman-6-yl)-ethynyl nicotinate], for which, in the data set with SkinEthic RHE cultures, the “IL-1α activity compared to untreated and vehicle controls” value was “only slightly increased”. The values for the fold induction at 2830 µM in data set [1] (setting [5]), in data set [1] (setting [6]) and in data set [1] (setting [7]) were 103 to 180, 12 and 33 to 43, respectively. Besides, the “concentration in human plasma” value in data set [2] (0 hour) was 17.1 ng/mL; in data set [2] (2 hours) it was 17.1 ng/mL; in data set [2] (4 hours), 16.6 ng/mL; in data set [2] (8 hours), 17.5 ng/mL. For the same compound, the tazarotene lost entry in data set [3] (mixture of DUAC gel and TAZORAC cream, after four hours) is “approximately 22%”. The results for the half-life at 1 µM in “in vitro” (Complete) and in the data set “in vitro” (Without NADPH) were 7.88 min and 7.71 min, respectively. Also, the half-life at 10 µM in the data set “in vitro” (Complete) was 8.38 min; in “in vitro” (Without NADPH), 7.58 min. Moreover, the “detected in the receiving medium (passing through the skin)” value in data set [4] is given as “could not be detected”.
For `CCOC(=O)c1ccc(C#Cc2ccc3c(c2)C(C)(C)CC(OC(=O)c2ccccc2)S3)nc1` (stereo not drawn) [Compound 4, 6-(2-(2-benzoyloxy-4,4-dimethylthiochroman-6-yl)ethynyl)nicotinic acid, ethyl ester], the “IL-1α activity compared to untreated and vehicle controls” value in the data set with SkinEthic RHE cultures is reported as “only slightly increased”. The figures for the fold induction at 2830 µM in data set [1] (setting [5]), in data set [1] (setting [6]) and in data set [1] (setting [7]) were 29, 7 and 8, respectively. Moreover, the “concentration in human plasma” value is 52.0 ng/mL in data set [2] (0 hour), 52.0 ng/mL in data set [2] (2 hours), 50.0 ng/mL in data set [2] (4 hours) and 45.8 ng/mL in data set [2] (8 hours). Besides, the “% Label Tazarotene Benzoate” value in data set [3] (35° C., 4 hours) is recorded as roughly 6.3 % Label. The half-life at 1 µM in the data set “in vitro” (Complete) was 7.76 min; in “in vitro” (Without NADPH) it was 7.19 min. Moreover, the half-life at 10 µM in the data set “in vitro” (Complete) is 71.4 min; in “in vitro” (Without NADPH), 47.5 min. Also, in data set [4] (2 and 6 hours post-application, all samples including the placebo), the “detectable in epidermis and dermis samples” value is “detectable in all samples”. The “detected in the receiving medium (passing through the skin)” value in data set [4] is “could not be detected”. Further, in data set [4] (mixture of DUAC gel and TAZORAC cream retained for stability testing), the “quantity in stability samples at the 6 hour time point relative to the 2 hour time point” value was “significant increase”.

Usually half-life stands for the time needed for the level to fall by half in the phase considered. A higher half-life goes with slow loss.
